Measurements: US9493396B2, “Substituted naphthalene compounds as calcium sensing receptor modulators” (LUPIN ATLANTIS HOLDINGS SA, priority 2013, dated 2016)
Counter-ions that a name gives are not always drawn.

Target: T1, Calcium sensing receptor (hCaSR) (Homo sapiens, UniProt P41180)
T1 construct: expressed in transfected cells; host or cells: HEK293 (stably transfected)
T1 sequence (P41180 20-1078): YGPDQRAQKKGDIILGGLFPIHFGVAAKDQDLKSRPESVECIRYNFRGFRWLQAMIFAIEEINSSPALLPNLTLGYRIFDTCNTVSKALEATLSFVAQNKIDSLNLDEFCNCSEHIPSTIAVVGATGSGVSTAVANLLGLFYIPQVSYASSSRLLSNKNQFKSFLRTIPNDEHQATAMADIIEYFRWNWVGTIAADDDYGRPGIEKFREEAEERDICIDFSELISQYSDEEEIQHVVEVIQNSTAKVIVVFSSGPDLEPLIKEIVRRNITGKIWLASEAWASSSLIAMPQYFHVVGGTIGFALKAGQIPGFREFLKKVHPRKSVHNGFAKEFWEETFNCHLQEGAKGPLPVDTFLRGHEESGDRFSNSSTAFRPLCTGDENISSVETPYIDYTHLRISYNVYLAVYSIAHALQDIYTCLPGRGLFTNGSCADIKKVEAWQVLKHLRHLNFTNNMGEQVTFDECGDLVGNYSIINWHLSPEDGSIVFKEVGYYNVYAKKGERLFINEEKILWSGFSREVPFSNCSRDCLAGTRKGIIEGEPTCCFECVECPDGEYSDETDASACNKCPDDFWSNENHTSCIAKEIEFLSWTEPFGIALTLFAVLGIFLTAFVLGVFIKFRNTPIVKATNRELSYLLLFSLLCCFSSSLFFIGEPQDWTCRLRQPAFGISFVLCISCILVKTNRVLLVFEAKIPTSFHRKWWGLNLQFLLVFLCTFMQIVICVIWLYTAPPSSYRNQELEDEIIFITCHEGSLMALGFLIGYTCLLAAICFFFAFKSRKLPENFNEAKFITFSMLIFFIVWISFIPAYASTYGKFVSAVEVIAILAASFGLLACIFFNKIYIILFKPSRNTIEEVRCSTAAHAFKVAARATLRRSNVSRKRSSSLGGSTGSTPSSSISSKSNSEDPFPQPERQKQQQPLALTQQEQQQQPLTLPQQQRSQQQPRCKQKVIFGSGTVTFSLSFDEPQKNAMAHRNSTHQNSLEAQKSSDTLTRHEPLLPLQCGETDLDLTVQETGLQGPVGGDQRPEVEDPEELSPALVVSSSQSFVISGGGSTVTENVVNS
Assay: In-vitro assay of calcimimetics through modulation of calcium sensing receptor (intracellular calcium increase, FLIPR)
Assay type: cell-based
Conditions: stably transfected HEK293 cells expressing hCaSR; Fluo4NW dye; 0.3 mM CaCl2; 8-point assay; read-out: EC50 in range
Procedure, shortened: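 Stably transfected HEK293 cells expressing hCaSR, loaded 30 min with Fluo4NW dye. Intracellular calcium rise measured on FLIPR in 20 mM HEPES buffer with 0.3 mM CaCl2. EC50 derived from 8-point concentration series.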

| EC50 [nM] | Compound |
| --- | --- |
| 20 to 50 | COc1cccc([C@@H](C)NCc2cc(-c3ccc(Cl)c(C(=O)O)c3)c3ccccc3c2)c1 [Example 99, (R)-2-Chloro-5-(3-(((1-(3-methoxyphenyl)ethyl)amino)methyl)naphthalen-1-yl)benzoic acid hydrochloride] |
| 50 to 400 | COc1cccc([C@@H](C)NC(C)c2cc(-c3ccc(C(F)(F)F)c(CCC(=O)O)c3)c3ccccc3c2)c1 (stereo partly drawn) [Example 145, 3-(5-(3-(1-(((R)-1-(3-Methoxyphenyl)ethyl)amino)ethyl)naphthalen-1-yl)-2-(trifluoromethyl)phenyl)propanoic acid hydrochloride] |
| 50 to 400 | COc1cccc([C@@H](C)NCc2cc(-c3cccc(C(=O)O)c3C)c3ccccc3c2)c1 [Example 101, (R)-3-(3-(((1-(3-Methoxyphenyl)ethyl)amino)methyl)naphthalen-1-yl)-2-methylbenzoic acid hydrochloride] |
| < 20 | COc1cccc([C@@H](C)NCc2cc(-c3cccc(C(=O)O)c3)c3ccccc3c2)c1 [Example 108, (R)-3-(3-(((1-(3-Methoxyphenyl)ethyl)amino)methyl)naphthalen-1-yl)benzoic acid hydrochloride] |
| < 20 | CC(N[C@H](C)c1cccc(Cl)c1)c1cc(-c2ccc(OC(F)(F)F)cc2)c2ccccc2c1 (stereo partly drawn) [Example 20, (1R)-1-(3-Chlorophenyl)-N-(1-(4-(4-(trifluoromethoxy)phenyl)naphthalen-2-yl)ethyl)ethanamine hydrochloride] |
| < 20 | COc1cccc([C@@H](C)NC(C)c2cc(-c3ccc(C(F)(F)F)cc3)c3ccccc3c2)c1 (stereo partly drawn) [Example 6, (R)-1-(3-Methoxyphenyl)-N-(1-(4-(4-(trifluoromethyl)phenyl)naphthalen-2-yl)ethyl)ethanamine hydrochloride] |
| 50 to 400 | COc1cccc([C@@H](C)NCc2cc(-c3ccc(C(C)(C)C(=O)O)cc3)c3ccccc3c2)c1 [Example 111, (R)-2-(4-(3-(((1-(3-Methoxyphenyl)ethyl)amino)methyl)naphthalen-1-yl)phenyl)-2-methylpropanoic acid hydrochloride] |
| 50 to 400 | COc1cccc([C@@H](C)NC(C)c2cc(-c3cc(F)cc(CCC(=O)O)c3)c3cc(F)ccc3c2)c1 (stereo partly drawn) [Example 147, 3-(3-Fluoro-5-(7-fluoro-3-(1-(((R)-1-(3-methoxyphenyl)ethyl)amino)ethyl)naphthalen-1-yl)phenyl)propanoic acid hydrochloride] |
| 50 to 400 | COc1cccc([C@@H](C)NC(C)c2cc(-c3cccc(C(C)(C)C(=O)O)c3)c3ccccc3c2)c1 (stereo partly drawn) [Example 139, 2-(3-(3-(1-(((R)-1-(3-Methoxyphenyl)ethyl)amino)ethyl)naphthalen-1-yl)phenyl)-2-methylpropanoic acid hydrochloride] |
| 50 to 400 | COc1cccc([C@@H](C)NC(C)c2cc(-c3ccc(C(=O)O)c(C)c3)c3ccccc3c2)c1 (stereo partly drawn) [Example 130, 4-(3-(1-(((R)-1-(3-Methoxyphenyl)ethyl)amino)ethyl)naphthalen-1-yl)-2-methylbenzoic acid hydrochloride] |
| 50 to 400 | COc1cccc([C@@H](C)NC(C)c2cc(-c3ccc(C(=O)O)c(Cl)c3)c3ccccc3c2)c1 (stereo partly drawn) [Example 121, 2-Chloro-4-(3-(1-(((R)-1-(3-methoxyphenyl)ethyl)amino)ethyl)naphthalen-1-yl)benzoic acid hydrochloride] |
| 50 to 400 | COc1cccc([C@@H](C)NC(C)c2cc(-c3ccc(C(F)(F)F)c(C(=O)O)c3)c3ccccc3c2)c1 (stereo partly drawn) [Example 128, 5-(3-(1-(((R)-1-(3-Methoxyphenyl)ethyl)amino)ethyl)naphthalen-1-yl)-2-(trifluoromethyl) benzoic acid hydrochloride] |
| 20 to 50 | CC(C)OC(=O)CCc1cc(F)cc(-c2cc(C(C)N[C@H](C)c3cccc(Cl)c3)cc3ccccc23)c1 (mixture of isomers) [Example 153, Isopropyl 3-(3-(3-(1-(((R)-1-(3-chlorophenyl)ethyl)amino)ethyl)naphthalen-1-yl)-5-fluorophenyl) propanoate hydrochloride] |
| 50 to 400 | COc1cc([C@@H](C)NCc2cc(-c3ccc(F)c(C(=O)O)c3)c3ccccc3c2)ccc1F [Example 96, (R)-2-Fluoro-5-(3-(((1-(4-fluoro-3-methoxyphenyl)ethyl)amino)methyl)naphthalen-1-yl)benzoic acid hydrochloride] |
| < 20 | CCOc1cccc([C@@H](C)NC(C)c2cc(-c3ccc(C(F)(F)F)cc3)c3ccccc3c2)c1 (stereo partly drawn) [Example 12, (1R)-1-(3-Ethoxyphenyl)-N-(1-(4-(4-(trifluoromethyl)phenyl)naphthalen-2-yl)ethyl)ethanamine hydrochloride] |
| 20 to 50 | COc1cc([C@@H](C)NCc2cc(-c3ccc(C(=O)O)cc3)c3ccccc3c2)ccc1F [Example 107, (R)-4-(3-(((1-(4-Fluoro-3-methoxyphenyl)ethyl)amino)methyl)naphthalen-1-yl)benzoic acid hydrochloride] |
| 50 to 400 | COc1cccc([C@@H](C)NCc2cc(-c3cccc(C(C)(C)C(=O)O)c3)c3ccccc3c2)c1 [Example 112, (R)-2-(3-(3-(((1-(3-Methoxyphenyl)ethyl)amino)methyl)naphthalen-1-yl)phenyl)-2-methylpropanoic acid hydrochloride] |
| 20 to 50 | COc1cccc([C@@H](C)NC(C)c2cc(-c3ccc(OC)c(CCC(=O)O)c3)c3ccccc3c2)c1 (stereo partly drawn) [Example 131, 3-(2-Methoxy-5-(3-(1-(((R)-1-(3-methoxyphenyl)ethyl)amino)ethyl)naphthalen-1-yl)phenyl) propanoic acid hydrochloride] |
| 50 to 400 | C[C@@H](NCc1cc(-c2ccc(C(=O)O)cc2)c2ccccc2c1)c1cccc2ccccc12 [Example 106, (R)-4-(3-(((1-(Naphthalen-1-yl)ethyl)amino)methyl)naphthalen-1-yl)benzoic acid hydrochloride] |
| 20 to 50 | COc1cccc([C@@H](C)NC(C)c2cc(-c3ccc(CCC(=O)O)c(F)c3)c3ccccc3c2)c1 (stereo partly drawn) [Example 136, 3-(2-Fluoro-4-(3-(1-(((R)-1-(3-methoxyphenyl)ethyl)amino)ethyl)naphthalen-1-yl)phenyl) propanoic acid hydrochloride] |
| 20 to 50 | CCOc1cccc([C@@H](C)NC(CC)c2cc(-c3ccc(F)c(CCC(=O)O)c3)c3ccccc3c2)c1 (stereo partly drawn) [Example 141, 3-(5-(3-(1-(((R)-1-(3-Ethoxyphenyl)ethyl)amino)propyl)naphthalen-1-yl)-2-fluorophenyl) propanoic acid hydrochloride] |
| 50 to 400 | COc1cccc([C@@H](C)NC(C)c2cc(-c3cc(C)cc(C(=O)O)c3)c3ccccc3c2)c1 (stereo partly drawn) [Example 125, 3-(3-(1-(((R)-1-(3-Methoxyphenyl)ethyl)amino)ethyl)naphthalen-1-yl)-5-methylbenzoic acid hydrochloride] |
| 50 to 400 | CC(N[C@H](C)c1cccc(Cl)c1)c1cc(-c2ccc(F)c(C(=O)O)c2)c2ccccc2c1 (stereo partly drawn) [Example 127, 5-(3-(1-(((R)-1-(3-Chlorophenyl)ethyl)amino)ethyl)naphthalen-1-yl)-2-fluorobenzoic acid hydrochloride] |
| 20 to 50 | CC(N[C@H](C)c1cccc(Cl)c1)c1cc(-c2cc(F)cc(CCC(=O)O)c2)c2ccccc2c1 (mixture of isomers) [Example 156, 3-(3-(3-(1-(((R)-1-(3-Chlorophenyl)ethyl)amino)ethyl)naphthalen-1-yl)-5-fluorophenyl)propanoic acid hydrochloride] |
| 20 to 50 | COc1cccc([C@@H](C)NC(C)c2cc(-c3ccc(C)c(C(=O)O)c3)c3ccccc3c2)c1 (single isomer, unassigned) [Example 114b, hydrochloride] |
| < 20 | COc1cccc([C@@H](C)NCc2cc(-c3ccc(F)c(CCC(=O)O)c3)c3ccccc3c2)c1 [Example 110, hydrochloride] |
| < 20 | COc1cccc([C@@H](C)NC(C)c2cc(-c3ccc(C(F)(F)C(=O)O)cc3)c3ccccc3c2)c1 (stereo partly drawn) [Example 135, 2,2-Difluoro-2-(4-(3-(1-(((R)-1-(3-methoxyphenyl)ethyl)amino)ethyl)naphthalen-1-yl)phenyl) acetic acid hydrochloride] |
| 50 to 400 | CCC(N[C@H](C)c1cccc(OC)c1)c1cc(-c2ccc(C)c(C(=O)O)c2)c2ccccc2c1 (stereo partly drawn) [Example 149, 5-(3-(1-(((R)-1-(3-Methoxyphenyl)ethyl)amino)propyl)naphthalen-1-yl)-2-methylbenzoic acid hydrochloride] |
